Assay results from ChEMBL document CHEMBL1201862, “PubChem BioAssay data set” (2004).
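Cells were grown in 96-well plates and exposed to each compound for 48 hours at five concentrations; endpoints were interpolated linearly between bracketing concentrations, or set to the highest concentration if not reached. The concentration for 50% growth inhibition is given as GI50.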 Calls of active or inactive are those of the source. Rule as the data show it: active = GI50 up to about 1.1 µM and inactive = higher.

How the values were obtained:
Assay in all cases: NCI-60 cell line screen, 48 h
Hs-578T = system: Hs-578T
HCT-15 = system: HCT-15
PC-3 = system: PC-3
SNB-19 = system: SNB-19
NCI-H23 = system: NCI-H23
EKVX = system: EKVX
U-251 = system: U-251
SN12C = system: SN12C
SF-539 = system: SF-539
CCRF-CEM = system: CCRF-CEM
K562 = system: K562
SR = system: SR
NCI-H460 = system: NCI-H460
OVCAR-3 = system: OVCAR-3
T47D = system: T47D
DU-145 = system: DU-145
UO-31 = system: UO-31
HCT-116 = system: HCT-116
HL-60 = system: HL-60
SF-295 = system: SF-295
MDA-MB-435 = system: MDA-MB-435
SK-MEL-5 = system: SK-MEL-5
NCI/ADR-RES = system: NCI/ADR-RES
MCF7 = system: MCF7
NCI-H226 = system: NCI-H226
M14 = system: M14
MDA-N = system: MDA-N
SK-MEL-2 = system: SK-MEL-2
OVCAR-4 = system: OVCAR-4
786-0 = system: 786-0
RXF 393 = system: RXF 393
SK-MEL-28 = system: SK-MEL-28
RPMI-8226 = system: RPMI-8226
SF-268 = system: SF-268
ACHN = system: ACHN
HT-29 = system: HT-29
A549 = system: A549
COLO 205 = system: COLO 205
UACC-257 = system: UACC-257
SW-620 = system: SW-620
A498 = system: A498
BT-549 = system: BT-549
LOX IMVI = system: LOX IMVI
HOP-92 = system: HOP-92
CAKI-1 = system: CAKI-1
OVCAR-5 = system: OVCAR-5
UACC-62 = system: UACC-62
MDA-MB-231 = system: MDA-MB-231
Malme-3M = system: Malme-3M
HOP-62 = system: HOP-62
NCI-H522 = system: NCI-H522
IGROV-1 = system: IGROV-1
KM12 = system: KM12
OVCAR-8 = system: OVCAR-8
TK-10 = system: TK-10

Question: How did the GI50 (Hs-578T) turn out when `O=C(/C=C/c1ccc(O)cc1)NCCc1ccc(O)cc1` [N-P-COUMAROYL TYRAMINE] was run?
Answer: > 12.5 µM (inactive)

Question: And the GI50 (HCT-15)?
Answer: > 12.5 µM

Question: What about the GI50 (PC-3) of the same molecule?
Answer: 8.57 µM (inactive)

Question: What about the GI50 (SNB-19) of the same molecule?
Answer: > 12.5 µM (inactive)

Question: And the GI50 (NCI-H23)?
Answer: 7.16 µM (inactive)

Question: And the GI50 (EKVX)?
Answer: 3.05 µM (inactive)

Question: And the GI50 (U-251)?
Answer: > 12.5 µM (inactive)

Question: And the GI50 (SN12C)?
Answer: 5 µM (inactive)

Question: What about the GI50 (SF-539) of the same molecule?
Answer: 3.13 µM (inactive)

Question: And the GI50 (CCRF-CEM)?
Answer: 2.99 µM (inactive)

Question: And the GI50 (K562)?
Answer: 5.6 µM (inactive)

Question: And the GI50 (SR)?
Answer: 4.02 µM (inactive)

Question: And the GI50 (NCI-H460)?
Answer: 11.2 µM (inactive)

Question: And the GI50 (OVCAR-3)?
Answer: 8.93 µM (inactive)

Question: What about the GI50 (T47D) of the same molecule?
Answer: > 12.5 µM (inactive)

Question: And the GI50 (DU-145)?
Answer: 12 µM (inactive)

Question: What about the GI50 (UO-31) of the same molecule?
Answer: 11.1 µM (inactive)

Question: And the GI50 (HCT-116)?
Answer: > 12.5 µM (inactive)

Question: What about the GI50 (HL-60) of the same molecule?
Answer: 3.58 µM (inactive)

Question: And the GI50 (SF-295)?
Answer: 8.13 µM (inactive)

Question: What about the GI50 (MDA-MB-435) of the same molecule?
Answer: > 12.5 µM (inactive)

Question: What about the GI50 (SK-MEL-5) of the same molecule?
Answer: > 12.5 µM (inactive)

Question: What about the GI50 (NCI/ADR-RES) of the same molecule?
Answer: 3.62 µM (inactive)

Question: And the GI50 (MCF7)?
Answer: > 12.5 µM (inactive)

Question: What about the GI50 (NCI-H226) of the same molecule?
Answer: > 12.5 µM (inactive)

Question: What about the GI50 (M14) of the same molecule?
Answer: > 12.5 µM (inactive)

Question: And the GI50 (MDA-N)?
Answer: > 12.5 µM (inactive)

Question: What about the GI50 (SK-MEL-2) of the same molecule?
Answer: > 12.5 µM (inactive)

Question: What about the GI50 (OVCAR-4) of the same molecule?
Answer: 8.63 µM (inactive)

Question: What about the GI50 (786-0) of the same molecule?
Answer: > 12.5 µM (inactive)

Question: And the GI50 (RXF 393)?
Answer: > 12.5 µM (inactive)

Question: What about the GI50 (SK-MEL-28) of the same molecule?
Answer: > 12.5 µM (inactive)

Question: And the GI50 (RPMI-8226)?
Answer: 6.95 µM (inactive)

Question: And the GI50 (SF-268)?
Answer: 9.57 µM (inactive)

Question: What about the GI50 (ACHN) of the same molecule?
Answer: 3.49 µM (inactive)

Question: And the GI50 (HT-29)?
Answer: > 12.5 µM (inactive)

Question: What about the GI50 (A549) of the same molecule?
Answer: 4.06 µM (inactive)

Question: What about the GI50 (COLO 205) of the same molecule?
Answer: > 12.5 µM (inactive)

Question: What about the GI50 (UACC-257) of the same molecule?
Answer: > 12.5 µM (inactive)

Question: What about the GI50 (SW-620) of the same molecule?
Answer: > 12.5 µM (inactive)

Question: And the GI50 (A498)?
Answer: > 12.5 µM (inactive)

Question: And the GI50 (BT-549)?
Answer: 7.53 µM (inactive)

Question: And the GI50 (LOX IMVI)?
Answer: > 12.5 µM (inactive)

Question: And the GI50 (HOP-92)?
Answer: 5.14 µM (inactive)

Question: And the GI50 (CAKI-1)?
Answer: 10.2 µM (inactive)

Question: And the GI50 (OVCAR-5)?
Answer: > 12.5 µM (inactive)

Question: And the GI50 (UACC-62)?
Answer: 7.41 µM (inactive)

Question: What about the GI50 (MDA-MB-231) of the same molecule?
Answer: > 12.5 µM (inactive)

Question: And the GI50 (Malme-3M)?
Answer: > 12.5 µM (inactive)

Question: What about the GI50 (HOP-62) of the same molecule?
Answer: > 12.5 µM (inactive)

Question: And the GI50 (NCI-H522)?
Answer: 3.38 µM (inactive)

Question: What about the GI50 (IGROV-1) of the same molecule?
Answer: 8.3 µM (inactive)

Question: What about the GI50 (KM12) of the same molecule?
Answer: > 12.5 µM (inactive)

Question: What about the GI50 (OVCAR-8) of the same molecule?
Answer: > 12.5 µM (inactive)

Question: And the GI50 (TK-10)?
Answer: 3.72 µM (inactive)
